Measurements taken from PubChem BioAssay (NCI).
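Assay format: 96-well plates, 48-hour exposure. TGI: total growth inhibition.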

Tests used:
Assay in all cases: NCI-60 cell line screen, 48 h
NCI-H23 lung = test system: NCI-H23 lung
OVCAR-8 ovarian = test system: OVCAR-8 ovarian
A498 renal = test system: A498 renal
KM20L2 colon = test system: KM20L2 colon
SN12C renal = test system: SN12C renal
LOX IMVI melanoma = test system: LOX IMVI melanoma
SK-OV-3 ovarian = test system: SK-OV-3 ovarian
LXFL 529 NSCLC = test system: LXFL 529 NSCLC
SK-MEL-28 melanoma = test system: SK-MEL-28 melanoma
HOP-18 NSCLC = test system: HOP-18 NSCLC
A549 NSCLC = test system: A549 NSCLC
KM12 colon = test system: KM12 colon
RPMI-8226 leukemia = test system: RPMI-8226 leukemia
M14 melanoma = test system: M14 melanoma
SK-MEL-2 melanoma = test system: SK-MEL-2 melanoma
XF 498 CNS = test system: XF 498 CNS
COLO 205 colon = test system: COLO 205 colon
NCI-H226 lung = test system: NCI-H226 lung
SF-268 CNS = test system: SF-268 CNS
SF-295 CNS = test system: SF-295 CNS
UACC-62 melanoma = test system: UACC-62 melanoma
OVCAR-4 ovarian = test system: OVCAR-4 ovarian
HL-60(TB) leukemia = test system: HL-60(TB) leukemia
TK-10 renal = test system: TK-10 renal
HCC-2998 colon = test system: HCC-2998 colon
IGROV1 ovarian = test system: IGROV1 ovarian
SF-539 CNS = test system: SF-539 CNS
EKVX NSCLC = test system: EKVX NSCLC
SW-620 colon = test system: SW-620 colon
HOP-92 NSCLC = test system: HOP-92 NSCLC
UACC-257 melanoma = test system: UACC-257 melanoma
K-562 leukemia = test system: K-562 leukemia
MALME-3M melanoma = test system: MALME-3M melanoma
DMS 114 small cell lung = test system: DMS 114 small cell lung
DMS 273 small cell lung = test system: DMS 273 small cell lung
NCI-H460 lung = test system: NCI-H460 lung
DLD-1 colon = test system: DLD-1 colon
MOLT-4 leukemia = test system: MOLT-4 leukemia
NCI-H522 lung = test system: NCI-H522 lung
SNB-75 CNS = test system: SNB-75 CNS
HCT-116 colon = test system: HCT-116 colon
OVCAR-5 ovarian = test system: OVCAR-5 ovarian
HCT-15 colon = test system: HCT-15 colon
CCRF-CEM leukemia = test system: CCRF-CEM leukemia
UO-31 renal = test system: UO-31 renal
RXF 393 renal = test system: RXF 393 renal
HT29 colon = test system: HT29 colon
M19-MEL melanoma = test system: M19-MEL melanoma
786-0 renal = test system: 786-0 renal
HOP-62 NSCLC = test system: HOP-62 NSCLC
U251 CNS = test system: U251 CNS
ACHN renal = test system: ACHN renal
CAKI-1 renal = test system: CAKI-1 renal
SK-MEL-5 melanoma = test system: SK-MEL-5 melanoma
SNB-78 CNS = test system: SNB-78 CNS
SNB-19 CNS = test system: SNB-19 CNS
SR leukemia = test system: SR leukemia
OVCAR-3 ovarian = test system: OVCAR-3 ovarian

C[N+](C)(C)CC(=O)N/N=C(/C=C/c1ccccc1)CC1OC(=O)c2ccccc21 (configuration not stated)
TGI (NCI-H23 lung): > 10 µM
TGI (OVCAR-8 ovarian): > 100 µM
TGI (A498 renal): > 100 µM
TGI (KM20L2 colon): > 100 µM
TGI (SN12C renal): > 100 µM
TGI (LOX IMVI melanoma): > 10 µM
TGI (SK-OV-3 ovarian): > 100 µM
TGI (LXFL 529 NSCLC): > 100 µM
TGI (SK-MEL-28 melanoma): > 100 µM
TGI (HOP-18 NSCLC): > 100 µM
TGI (A549 NSCLC): > 100 µM
TGI (KM12 colon): > 100 µM
TGI (RPMI-8226 leukemia): > 100 µM
TGI (M14 melanoma): > 100 µM
TGI (SK-MEL-2 melanoma): > 100 µM
TGI (XF 498 CNS): > 100 µM
TGI (COLO 205 colon): > 100 µM
TGI (NCI-H226 lung): > 100 µM
TGI (SF-268 CNS): > 100 µM
TGI (SF-295 CNS): > 10 µM
TGI (UACC-62 melanoma): > 100 µM
TGI (OVCAR-4 ovarian): > 100 µM
TGI (HL-60(TB) leukemia): > 100 µM
TGI (TK-10 renal): > 100 µM
TGI (HCC-2998 colon): > 100 µM
TGI (IGROV1 ovarian): > 100 µM
TGI (SF-539 CNS): > 100 µM
TGI (EKVX NSCLC): > 100 µM
TGI (SW-620 colon): > 100 µM
TGI (HOP-92 NSCLC): > 10 µM
TGI (UACC-257 melanoma): > 100 µM
TGI (K-562 leukemia): > 100 µM
TGI (MALME-3M melanoma): > 100 µM
TGI (DMS 114 small cell lung): > 100 µM
TGI (DMS 273 small cell lung): > 100 µM
TGI (NCI-H460 lung): > 100 µM
TGI (DLD-1 colon): > 100 µM
TGI (MOLT-4 leukemia): > 100 µM
TGI (NCI-H522 lung): > 100 µM
TGI (SNB-75 CNS): > 100 µM
TGI (HCT-116 colon): > 100 µM
TGI (OVCAR-5 ovarian): > 10 µM
TGI (HCT-15 colon): > 100 µM
TGI (CCRF-CEM leukemia): > 100 µM
TGI (UO-31 renal): > 100 µM
TGI (RXF 393 renal): > 100 µM
TGI (HT29 colon): > 10 µM
TGI (M19-MEL melanoma): > 100 µM
TGI (786-0 renal): > 100 µM
TGI (HOP-62 NSCLC): > 100 µM
TGI (U251 CNS): > 100 µM
TGI (ACHN renal): > 100 µM
TGI (CAKI-1 renal): > 100 µM
TGI (SK-MEL-5 melanoma): > 100 µM
TGI (SNB-78 CNS): > 100 µM
TGI (SNB-19 CNS): > 100 µM

C=Nc1ccc([N+](=O)[O-])cc1
TGI (NCI-H23 lung): > 100 µM
TGI (OVCAR-8 ovarian): > 100 µM
TGI (A498 renal): > 100 µM
TGI (KM20L2 colon): > 100 µM
TGI (SN12C renal): > 100 µM
TGI (LOX IMVI melanoma): > 100 µM
TGI (SK-OV-3 ovarian): > 100 µM
TGI (LXFL 529 NSCLC): > 100 µM
TGI (SK-MEL-28 melanoma): > 100 µM
TGI (HOP-18 NSCLC): > 92.9 µM
TGI (A549 NSCLC): > 100 µM
TGI (KM12 colon): > 100 µM
TGI (RPMI-8226 leukemia): > 31.6 µM
TGI (M14 melanoma): > 100 µM
TGI (SK-MEL-2 melanoma): > 100 µM
TGI (XF 498 CNS): > 100 µM
TGI (COLO 205 colon): > 100 µM
TGI (NCI-H226 lung): > 100 µM
TGI (SF-268 CNS): > 100 µM
TGI (SF-295 CNS): > 100 µM
TGI (UACC-62 melanoma): > 100 µM
TGI (OVCAR-4 ovarian): > 100 µM
TGI (HL-60(TB) leukemia): > 100 µM
TGI (TK-10 renal): > 100 µM
TGI (HCC-2998 colon): > 100 µM
TGI (IGROV1 ovarian): > 100 µM
TGI (SF-539 CNS): > 100 µM
TGI (EKVX NSCLC): > 100 µM
TGI (SW-620 colon): > 100 µM
TGI (HOP-92 NSCLC): > 100 µM
TGI (UACC-257 melanoma): > 100 µM
TGI (K-562 leukemia): > 60.5 µM
TGI (MALME-3M melanoma): > 100 µM
TGI (DMS 114 small cell lung): > 100 µM
TGI (DMS 273 small cell lung): > 100 µM
TGI (NCI-H460 lung): > 100 µM
TGI (DLD-1 colon): > 100 µM
TGI (MOLT-4 leukemia): > 100 µM
TGI (NCI-H522 lung): > 100 µM
TGI (SNB-75 CNS): > 100 µM
TGI (HCT-116 colon): > 100 µM
TGI (OVCAR-5 ovarian): > 100 µM
TGI (HCT-15 colon): > 100 µM
TGI (CCRF-CEM leukemia): > 100 µM
TGI (UO-31 renal): > 100 µM
TGI (HT29 colon): > 100 µM
TGI (M19-MEL melanoma): > 100 µM
TGI (786-0 renal): > 100 µM
TGI (SR leukemia): > 80.1 µM
TGI (U251 CNS): > 100 µM
TGI (ACHN renal): > 100 µM
TGI (CAKI-1 renal): > 100 µM
TGI (SK-MEL-5 melanoma): > 100 µM
TGI (SNB-78 CNS): > 100 µM
TGI (SNB-19 CNS): > 100 µM
TGI (OVCAR-3 ovarian): > 100 µM
